The assay addresses DNA-PK (Homo sapiens, UniProt P78527). Description: DNA-PK inhibition assay (radiometric, 33P-ATP). The note with it: 100 μM ATP, competitive tight-binding fit. The format is biochemical. The essentials:
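33P transfer from 100 µM ATP to a DNA-PK peptide (0.8 mg/mL) is measured after 45 min, using about 6 nM enzyme activated by 10 µg/mL sheared dsDNA (HEPES pH 7.5, MgCl2, DTT). Filter-bound counts fitted to a competitive tight-binding inhibition model give Ki.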
`CNC(=O)c1ccnc2c([C@H](C)CNc3cc(-c4ccc(C(C)(C)C#N)cc4)ncn3)cccc12` [Compound 679] displayed an inhibitory constant (Ki) below 30 nM. The figure for `CCOc1ccccc1CCNc1cc(-c2ccc(N3CC[C@H](O)C3)nc2)ncn1` [Compound 98] is below 30 nM. As to `COc1ccccc1CCNc1cc(-c2ccc3ncccc3c2)ncn1` [Compound 1], the inhibition constant Ki is below 30 nM.

Turning to `CNC(=O)c1ccc(C(C)CNc2cc(-c3ccc(CCOC)cc3)ncn2)c(OC)c1` (centres unmarked) [Compound 340], the Ki was below 30 nM.

`C[C@H](CNc1cc(-c2cnc(N)c(Cl)c2)ncn1)c1ccnc2c1OCCO2` [Compound 553] yielded a Ki below 30 nM.

`Cc1ccc(-c2cc(NCC(C)c3ccc(F)c4ccoc34)ncn2)cn1` (centres unmarked) [Compound 477] came in with a Ki below 30 nM. Take `CNC(=O)c1ccnc2c([C@H](C)CNc3cc(-c4cc(F)c(OC(C)C)c(F)c4)ncn3)cccc12` [Compound 872]: the Ki was below 30 nM. In turn, `Cc1ccc(-c2cc(NC[C@@H](C)c3cccc4c3OCCN4)ncn2)cn1` [Compound 513] displayed a Ki below 30 nM.

On to `CNC(=O)c1ccnc2c([C@H](C)CNc3cc(-c4ccc(C(C)=O)cc4)ncn3)cccc12` [Compound 590], for which the Ki is below 30 nM. Consider `CNC(=O)c1ccnc2c([C@H](C)CNc3cc(-c4ccc(C#N)nc4)ncn3)ccc(F)c12` [Compound 909], for which the Ki was below 30 nM. The figure for `Cc1ccc(-c2cc(NCC(C)c3ccncc3OC3CC3)ncn2)cn1` (centres unmarked) [Compound 287] is below 30 nM; for `CNC(=O)c1ccnc2c([C@H](C)CNc3cc(-c4cnc(OC)nc4)ncn3)cccc12` [Compound 606] it is below 30 nM; for `CNC(=O)c1ccnc2c([C@H](C)CNc3cc(-c4cnc(OC5CCC5)nc4)ncn3)ccc(F)c12` [Compound 982] it is below 30 nM. For the molecule `CNC(=O)c1ccc([C@H](C)CNc2cc(-c3ccc(NC)nc3)ncn2)c(OC)c1` [Compound 358], the Ki is below 30 nM.

Take `CNC(=O)c1ccnc2c([C@H](C)CNc3cc(-c4ccc(C(=O)NC5CC5)cc4)ncn3)cccc12` [Compound 752]: the Ki was below 30 nM. `C[C@H](CNc1cc(-c2ccc3ncccc3c2)ncn1)c1ccnc2c1OCC2` [Compound 480] gave a Ki below 30 nM. `CNC(=O)c1ccc(C(C)CNc2cc(-c3ccc(OC4COC4)nc3)ncn2)c(OC)c1` (centres unmarked) [Compound 307] had a Ki below 30 nM.

Turning to `Cc1ccc(-c2cc(NCC(C)c3ccccc3OCC3CC3)ncn2)cn1` (centres unmarked) [Compound 186], the Ki is below 30 nM. The figure for `CNC(=O)c1ccc(C(C)CNc2cc(-c3ccc4c(c3)c(C)nn4CCO)ncn2)c(OC)c1` (centres unmarked) [Compound 272] is below 30 nM; for `Cc1ccc(-c2cc(NC[C@@H](C)c3cccc4nccnc34)ncn2)cn1` [Compound 445] it is below 30 nM; for `CNC(=O)c1ccnc2c([C@H](C)CNc3cc(-c4ccc5c(c4)N(C)CCO5)ncn3)cccc12` [Compound 864] it is below 30 nM. Under `CNC(=O)c1ccc([C@H](C)CNc2cc(-c3ccc(C)nc3)ncn2)c2ncccc12` [Compound 485] stands below 30 nM; under `CNC(=O)c1ccnc2c([C@H](C)CNc3cc(-c4ccc(N5CCOC(C)(C)C5)nc4)ncn3)cccc12` [Compound 733], below 30 nM; under `Cc1ccc(-c2cc(NCC(C)c3ccccc3OCC3CCCC3)ncn2)cn1` (centres unmarked) [Compound 194], below 30 nM. `COc1cc(C=O)ccc1C(C)CNc1cc(-c2ccc(C)nc2)ncn1` (centres unmarked) [Compound 378] yielded a Ki below 30 nM.

Take `CNC(=O)c1ccc(C(C)CNc2cc(-c3ccc(OCC4CCC4)nc3)ncn2)c(OC)c1` (centres unmarked) [Compound 321]: the Ki was below 30 nM. `CNC(=O)c1ccc([C@H](C)CNc2cc(-c3ccc(N(C)C4CCN(C)CC4)nc3)ncn2)c(OC)c1` [Compound 347] displayed a Ki below 30 nM.

On to `CNC(=O)c1ccnc2c([C@H](C)CNc3cc(-c4cnc(OC)c(C)c4)ncn3)cccc12` [Compound 945], for which the Ki is below 30 nM. On to `CNC(=O)c1ccc([C@H](C)CNc2cc(-c3ccc(N4CC=CCC4)nc3)ncn2)c(OC)c1` [Compound 366], for which the Ki was below 30 nM.

The term Ki denotes a dissociation constant, usually derived from enzyme kinetics or from competition with a known ligand. A lower Ki goes with a stronger hold on the target.

The record behind these values is patent US10391095B2, “DNA-PK inhibitors” (Vertex Pharmaceuticals Incorporated, priority 2012, dated 2019).
